Test results reported in ChEMBL document CHEMBL1201862, “PubChem BioAssay data set” (2004).
Calls of active or inactive are those of the source.

What was measured:
Type in all cases: functional
[1] = molecular target: Vascular endothelial growth factor receptor 1 (Homo sapiens, UniProt P17948);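 also: measured within a kinome-wide profiling panel, FLT1 as the panel member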
[2] = molecular target: Dual specificity protein kinase CLK4 (Homo sapiens, UniProt Q9HAZ1)
[3] = molecular target: Leukocyte tyrosine kinase receptor (Homo sapiens, UniProt P29376); assay: Navigating the Kinome. Panel member name: LTK
[4] = molecular target: High affinity nerve growth factor receptor (Homo sapiens, UniProt P04629);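 also: NTRK1 tested as one member of a kinome-wide profiling panel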
[5] = molecular target: Activated CDC42 kinase 1 (Homo sapiens, UniProt Q07912); assay: Navigating the Kinome. Panel member name: ACK1
[6] = molecular target: BDNF/NT-3 growth factors receptor (Homo sapiens, UniProt Q16620);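 also: NTRK2 measured as one member of a broad kinome-wide kinase profiling panel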
[7] = molecular target: Serine/threonine-protein kinase pim-1 (Homo sapiens, UniProt P11309)
[8] = molecular target: Tyrosine-protein kinase Fyn (Homo sapiens, UniProt P06241)
[9] = molecular target: Dual specificity mitogen-activated protein kinase kinase 1 (Homo sapiens, UniProt Q02750); assay: Navigating the Kinome. Panel member name: MAP2K1
[10] = molecular target: Glycogen synthase kinase-3 alpha (Homo sapiens, UniProt P49840);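 also: GSK3A result taken from a broad kinome-wide kinase panel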
[11] = molecular target: Cyclin-dependent kinase 9 (Homo sapiens, UniProt P50750);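 also: value from the CDK9 entry of a kinome-spanning kinase panel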
[12] = molecular target: Focal adhesion kinase 1 (Homo sapiens, UniProt Q05397);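 also: measured as one member of a kinome panel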
[13] = molecular target: Cyclin-dependent kinase 8 (Homo sapiens, UniProt P49336); assay: Navigating the Kinome. Panel member name: CDK8
[14] = molecular target: Platelet-derived growth factor receptor beta (Homo sapiens, UniProt P09619);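 also: value comes from a kinome panel, with PDGFRB tested as one panel member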
[15] = molecular target: cAMP-dependent protein kinase catalytic subunit PRKX (Homo sapiens, UniProt P51817)
cAMP-dependent protein kinase catalytic subunit PRKX, sequence (P51817 whole entry): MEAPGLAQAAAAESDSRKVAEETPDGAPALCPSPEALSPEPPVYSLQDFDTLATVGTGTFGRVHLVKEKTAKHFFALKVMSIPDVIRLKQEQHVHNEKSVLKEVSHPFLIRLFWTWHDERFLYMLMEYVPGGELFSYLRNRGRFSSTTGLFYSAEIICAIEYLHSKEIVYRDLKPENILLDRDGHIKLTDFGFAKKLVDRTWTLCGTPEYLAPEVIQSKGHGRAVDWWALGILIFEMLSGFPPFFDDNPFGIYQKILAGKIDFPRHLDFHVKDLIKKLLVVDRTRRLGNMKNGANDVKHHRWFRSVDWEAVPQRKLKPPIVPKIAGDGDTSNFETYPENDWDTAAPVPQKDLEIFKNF

[16] = molecular target: Inhibitor of nuclear factor kappa-B kinase subunit epsilon (Homo sapiens, UniProt Q14164); assay: Navigating the Kinome. Panel member name: IKBKE
[17] = molecular target: Tyrosine-protein kinase JAK3 (Homo sapiens, UniProt P52333)
[18] = molecular target: Mitogen-activated protein kinase 8 (Homo sapiens, UniProt P45983);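 also: value comes from one member of a kinome-wide kinase profiling panel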
[19] = molecular target: Death-associated protein kinase 3 (Homo sapiens, UniProt O43293);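 also: measured as one member of a kinome-wide profiling panel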
[20] = molecular target: Dual specificity protein kinase CLK2 (Homo sapiens, UniProt P49760)
[21] = molecular target: Serine/threonine-protein kinase Nek2 (Homo sapiens, UniProt P51955)
[22] = molecular target: Cyclin-dependent kinase 7 (Homo sapiens, UniProt P50613);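 also: value comes from a kinome-wide kinase profiling panel in which CDK7 is one member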
Cyclin-dependent kinase 7, sequence (P50613 whole entry): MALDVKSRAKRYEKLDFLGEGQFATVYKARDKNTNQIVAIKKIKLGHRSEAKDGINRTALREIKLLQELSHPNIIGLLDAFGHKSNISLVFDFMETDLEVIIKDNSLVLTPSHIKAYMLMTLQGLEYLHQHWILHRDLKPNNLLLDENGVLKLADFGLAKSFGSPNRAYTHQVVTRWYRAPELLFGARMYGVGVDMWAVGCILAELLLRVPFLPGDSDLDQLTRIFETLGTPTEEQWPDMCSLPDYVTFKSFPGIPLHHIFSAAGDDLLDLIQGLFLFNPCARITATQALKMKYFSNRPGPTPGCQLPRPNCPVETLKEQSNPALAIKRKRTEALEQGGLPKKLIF

[23] = molecular target: Serine/threonine-protein kinase D3 (Homo sapiens, UniProt O94806);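 also: determined within a kinase panel screen, with PRKCN as the panel member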
[24] = molecular target: Leucine-rich repeat serine/threonine-protein kinase 2 (Homo sapiens, UniProt Q5S007);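 also: value from a broad kinome-wide panel profiling study in which LRRK2 was one of the kinases tested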
Leucine-rich repeat serine/threonine-protein kinase 2, sequence (Q5S007 whole entry): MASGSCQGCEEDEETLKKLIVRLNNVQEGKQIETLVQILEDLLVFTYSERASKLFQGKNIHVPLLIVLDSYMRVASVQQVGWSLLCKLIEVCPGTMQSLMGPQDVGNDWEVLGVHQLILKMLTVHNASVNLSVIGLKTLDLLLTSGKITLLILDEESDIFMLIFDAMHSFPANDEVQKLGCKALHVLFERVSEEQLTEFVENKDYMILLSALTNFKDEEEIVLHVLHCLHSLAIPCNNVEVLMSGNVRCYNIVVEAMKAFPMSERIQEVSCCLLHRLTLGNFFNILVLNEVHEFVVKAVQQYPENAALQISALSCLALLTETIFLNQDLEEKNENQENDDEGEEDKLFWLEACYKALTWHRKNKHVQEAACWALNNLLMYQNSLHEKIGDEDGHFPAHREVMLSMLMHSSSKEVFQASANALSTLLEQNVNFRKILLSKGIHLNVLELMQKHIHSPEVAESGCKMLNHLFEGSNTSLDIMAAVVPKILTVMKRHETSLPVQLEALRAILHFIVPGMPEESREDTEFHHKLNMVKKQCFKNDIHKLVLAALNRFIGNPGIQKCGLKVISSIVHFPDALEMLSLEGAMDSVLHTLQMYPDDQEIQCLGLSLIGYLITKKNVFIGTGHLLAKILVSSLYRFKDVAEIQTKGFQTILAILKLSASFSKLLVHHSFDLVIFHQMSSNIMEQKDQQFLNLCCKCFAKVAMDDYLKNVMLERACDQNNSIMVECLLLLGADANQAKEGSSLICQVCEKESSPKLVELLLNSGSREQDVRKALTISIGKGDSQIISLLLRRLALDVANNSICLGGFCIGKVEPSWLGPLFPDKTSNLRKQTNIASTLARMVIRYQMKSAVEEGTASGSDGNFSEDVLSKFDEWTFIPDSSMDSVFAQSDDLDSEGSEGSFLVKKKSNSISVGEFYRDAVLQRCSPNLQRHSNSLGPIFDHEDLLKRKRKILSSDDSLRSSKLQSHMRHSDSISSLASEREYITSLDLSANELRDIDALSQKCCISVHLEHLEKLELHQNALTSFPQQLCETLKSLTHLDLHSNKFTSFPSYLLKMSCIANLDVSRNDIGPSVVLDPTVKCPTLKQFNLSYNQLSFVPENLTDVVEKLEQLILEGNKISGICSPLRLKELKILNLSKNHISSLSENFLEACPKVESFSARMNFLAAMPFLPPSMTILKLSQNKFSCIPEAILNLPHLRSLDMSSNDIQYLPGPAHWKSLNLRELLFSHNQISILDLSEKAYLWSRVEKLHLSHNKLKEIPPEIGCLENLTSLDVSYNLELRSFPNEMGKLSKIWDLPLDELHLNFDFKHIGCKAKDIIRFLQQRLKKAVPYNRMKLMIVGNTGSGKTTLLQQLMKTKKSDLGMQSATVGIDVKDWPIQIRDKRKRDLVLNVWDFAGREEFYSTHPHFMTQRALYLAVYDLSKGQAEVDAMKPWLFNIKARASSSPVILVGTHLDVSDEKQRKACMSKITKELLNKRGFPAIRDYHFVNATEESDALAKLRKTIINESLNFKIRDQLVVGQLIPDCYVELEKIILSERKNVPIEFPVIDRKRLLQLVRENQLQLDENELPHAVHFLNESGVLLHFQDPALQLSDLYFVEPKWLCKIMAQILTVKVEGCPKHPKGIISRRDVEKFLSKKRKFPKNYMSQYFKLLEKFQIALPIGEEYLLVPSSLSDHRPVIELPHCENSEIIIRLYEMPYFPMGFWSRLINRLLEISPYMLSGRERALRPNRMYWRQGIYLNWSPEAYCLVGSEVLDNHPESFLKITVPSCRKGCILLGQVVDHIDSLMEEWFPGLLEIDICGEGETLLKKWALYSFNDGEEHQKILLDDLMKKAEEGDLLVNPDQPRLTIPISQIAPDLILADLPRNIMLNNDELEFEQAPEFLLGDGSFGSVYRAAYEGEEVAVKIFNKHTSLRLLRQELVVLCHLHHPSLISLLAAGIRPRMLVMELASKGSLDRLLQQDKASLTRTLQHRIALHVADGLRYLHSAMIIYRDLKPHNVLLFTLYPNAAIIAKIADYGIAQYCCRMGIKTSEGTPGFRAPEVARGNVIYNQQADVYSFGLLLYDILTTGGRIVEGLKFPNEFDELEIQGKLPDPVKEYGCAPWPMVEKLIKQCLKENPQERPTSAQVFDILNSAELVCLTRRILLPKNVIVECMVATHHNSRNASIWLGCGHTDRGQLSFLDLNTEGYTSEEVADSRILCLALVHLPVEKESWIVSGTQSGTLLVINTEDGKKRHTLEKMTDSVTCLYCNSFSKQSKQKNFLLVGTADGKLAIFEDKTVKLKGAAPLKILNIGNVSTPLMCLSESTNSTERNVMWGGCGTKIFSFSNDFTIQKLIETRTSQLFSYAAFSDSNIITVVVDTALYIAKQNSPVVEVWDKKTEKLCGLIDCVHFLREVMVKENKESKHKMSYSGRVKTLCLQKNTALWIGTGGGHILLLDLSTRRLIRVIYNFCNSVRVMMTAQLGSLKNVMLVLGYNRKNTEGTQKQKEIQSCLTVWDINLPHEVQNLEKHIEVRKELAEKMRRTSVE

[25] = molecular target: Mitogen-activated protein kinase 9 (Homo sapiens, UniProt P45984);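 also: value from a kinome panel profiling assay, MAPK9 panel entry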
[26] = molecular target: Tyrosine-protein kinase BTK (Homo sapiens, UniProt Q06187)
[27] = molecular target: Dual specificity mitogen-activated protein kinase kinase 2 (Homo sapiens, UniProt P36507); assay: Navigating the Kinome. Panel member name: MAP2K2
Dual specificity mitogen-activated protein kinase kinase 2, sequence (P36507 whole entry): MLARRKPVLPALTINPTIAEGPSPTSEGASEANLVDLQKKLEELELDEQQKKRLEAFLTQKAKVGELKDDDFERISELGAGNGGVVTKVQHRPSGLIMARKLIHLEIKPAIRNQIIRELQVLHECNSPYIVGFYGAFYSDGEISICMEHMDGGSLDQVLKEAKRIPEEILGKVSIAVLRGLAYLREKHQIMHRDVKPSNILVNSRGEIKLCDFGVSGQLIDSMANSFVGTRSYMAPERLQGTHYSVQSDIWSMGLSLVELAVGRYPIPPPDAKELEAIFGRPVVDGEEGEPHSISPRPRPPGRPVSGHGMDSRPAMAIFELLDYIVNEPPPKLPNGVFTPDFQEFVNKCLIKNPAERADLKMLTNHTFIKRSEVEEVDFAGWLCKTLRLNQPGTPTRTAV

[28] = molecular target: Receptor-type tyrosine-protein kinase FLT3 (Homo sapiens, UniProt P36888);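 also: FLT3 was tested as one member of a kinome-wide kinase panel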
[29] = molecular target: LIM domain kinase 1 (Homo sapiens, UniProt P53667); assay: Navigating the Kinome. Panel member name: LIMK1
[30] = molecular target: 5'-AMP-activated protein kinase catalytic subunit alpha-1 (Homo sapiens, UniProt Q13131)
[31] = molecular target: Aurora kinase B (Homo sapiens, UniProt Q96GD4)
[32] = molecular target: Proto-oncogene tyrosine-protein kinase receptor Ret (Homo sapiens, UniProt P07949);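 also: measured within a kinome-wide profiling panel, RET as the panel member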
[33] = molecular target: Tyrosine-protein kinase receptor TYRO3 (Homo sapiens, UniProt Q06418);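 also: TYRO3 value obtained as one member of a kinome-wide profiling panel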
[34] = molecular target: Glycogen synthase kinase-3 beta (Homo sapiens, UniProt P49841);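 also: value comes from a broad kinome profiling panel, with GSK3B as the panel member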
[35] = molecular target: Serine/threonine-protein kinase TAO1 (Homo sapiens, UniProt Q7L7X3)
[36] = molecular target: cAMP-dependent protein kinase catalytic subunit alpha (Homo sapiens, UniProt P17612)
[37] = molecular target: Tyrosine-protein kinase Lck (Homo sapiens, UniProt P06239);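 also: lck was assayed as one member of a kinase panel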
[38] = molecular target: Macrophage-stimulating protein receptor (Homo sapiens, UniProt Q04912); assay: Navigating the Kinome. Panel member name: MST1R
[39] = molecular target: Dual specificity tyrosine-phosphorylation-regulated kinase 1B (Homo sapiens, UniProt Q9Y463); assay: Navigating the Kinome. Panel member name: DYRK1B
[40] = molecular target: Dual specificity tyrosine-phosphorylation-regulated kinase 1A (Homo sapiens, UniProt Q13627);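 also: measured against DYRK1A as one member of a broad kinome profiling panel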
[41] = molecular target: Platelet-derived growth factor receptor alpha (Homo sapiens, UniProt P16234); assay: Navigating the Kinome. Panel member name: PDGFRA
[42] = molecular target: Ribosomal protein S6 kinase alpha-3 (Homo sapiens, UniProt P51812);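 also: measured within a kinome-wide profiling panel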
[43] = molecular target: Serine/threonine-protein kinase PAK 4 (Homo sapiens, UniProt O96013);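 also: value obtained within a kinome profiling panel in which PAK4 was one of the panel members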
[44] = molecular target: Serine/threonine-protein kinase TBK1 (Homo sapiens, UniProt Q9UHD2); assay: Navigating the Kinome. Panel member name: TBK1
[45] = molecular target: Mitogen-activated protein kinase 14 (Homo sapiens, UniProt Q16539);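 also: part of a kinome-wide panel, MAPK14 entry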
[46] = molecular target: Hepatocyte growth factor receptor (Homo sapiens, UniProt P08581);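 also: kinase panel profiling across the kinome, with MET as the panel member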
[47] = molecular target: Mitogen-activated protein kinase kinase kinase kinase 4 (Homo sapiens, UniProt O95819)
Mitogen-activated protein kinase kinase kinase kinase 4, sequence (O95819 whole entry): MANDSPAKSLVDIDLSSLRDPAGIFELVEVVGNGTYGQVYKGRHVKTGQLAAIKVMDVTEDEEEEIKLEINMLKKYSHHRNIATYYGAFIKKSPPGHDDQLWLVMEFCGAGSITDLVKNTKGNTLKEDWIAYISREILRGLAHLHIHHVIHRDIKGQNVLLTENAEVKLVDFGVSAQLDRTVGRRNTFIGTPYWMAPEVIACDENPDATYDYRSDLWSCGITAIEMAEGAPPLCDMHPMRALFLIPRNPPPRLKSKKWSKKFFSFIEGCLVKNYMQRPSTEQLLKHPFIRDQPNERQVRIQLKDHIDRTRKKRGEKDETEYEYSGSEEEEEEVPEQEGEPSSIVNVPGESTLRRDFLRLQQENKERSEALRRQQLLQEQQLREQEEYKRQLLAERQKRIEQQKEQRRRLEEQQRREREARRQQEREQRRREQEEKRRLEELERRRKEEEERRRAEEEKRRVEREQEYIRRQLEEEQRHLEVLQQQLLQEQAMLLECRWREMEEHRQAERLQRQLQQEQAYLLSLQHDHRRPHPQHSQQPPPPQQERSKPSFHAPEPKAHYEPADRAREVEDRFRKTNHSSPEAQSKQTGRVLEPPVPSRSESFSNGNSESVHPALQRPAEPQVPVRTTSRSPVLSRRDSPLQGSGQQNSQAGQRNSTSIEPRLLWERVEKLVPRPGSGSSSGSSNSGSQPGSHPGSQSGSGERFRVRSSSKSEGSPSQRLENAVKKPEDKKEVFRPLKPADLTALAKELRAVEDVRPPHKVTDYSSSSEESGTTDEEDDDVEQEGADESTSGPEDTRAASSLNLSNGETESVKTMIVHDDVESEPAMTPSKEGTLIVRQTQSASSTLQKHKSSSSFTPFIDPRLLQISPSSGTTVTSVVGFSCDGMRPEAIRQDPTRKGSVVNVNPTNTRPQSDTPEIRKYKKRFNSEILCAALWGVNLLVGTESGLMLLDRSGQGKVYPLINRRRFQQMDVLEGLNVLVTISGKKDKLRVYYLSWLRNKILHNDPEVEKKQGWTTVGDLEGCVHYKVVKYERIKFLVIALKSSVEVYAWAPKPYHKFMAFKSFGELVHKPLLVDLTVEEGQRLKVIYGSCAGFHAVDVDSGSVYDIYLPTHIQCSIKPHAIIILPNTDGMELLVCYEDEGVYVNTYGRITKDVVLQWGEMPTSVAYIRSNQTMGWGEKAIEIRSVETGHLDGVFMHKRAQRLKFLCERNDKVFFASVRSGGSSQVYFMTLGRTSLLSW

[48] = molecular target: Calcium/calmodulin-dependent protein kinase type II subunit alpha (Homo sapiens, UniProt Q9UQM7); assay: Navigating the Kinome. Panel member name: CAMK2A
[49] = molecular target: Rho-associated protein kinase 1 (Homo sapiens, UniProt Q13464);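 also: measured within a broad kinome-wide panel profiling many kinases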
[50] = molecular target: Cyclin-dependent kinase 5 (Homo sapiens, UniProt Q00535);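 also: CDK5 measured as one member of a kinase profiling panel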
[51] = molecular target: Aurora kinase A (Homo sapiens, UniProt O14965);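 also: value from the Navigating the Kinome kinase panel profiling, panel entry STK6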
[52] = molecular target: T1, Neuropeptides B/W receptor type 1 (Homo sapiens, UniProt P48145); assay: human NPBW1 receptor blockade, IC50 – cell-based, fluorescence, dose response, set 5, late-stage follow-up (AID 588566)
T1 sequence (P48145 whole entry): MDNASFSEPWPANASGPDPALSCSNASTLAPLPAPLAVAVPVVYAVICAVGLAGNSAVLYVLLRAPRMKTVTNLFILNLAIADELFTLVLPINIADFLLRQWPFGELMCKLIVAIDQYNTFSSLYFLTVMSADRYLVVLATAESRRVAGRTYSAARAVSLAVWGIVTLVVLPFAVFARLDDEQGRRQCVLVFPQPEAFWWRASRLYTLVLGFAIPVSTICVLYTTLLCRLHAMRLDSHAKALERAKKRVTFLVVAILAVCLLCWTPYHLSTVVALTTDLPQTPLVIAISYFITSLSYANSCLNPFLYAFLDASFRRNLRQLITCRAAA

[53] = molecular target: Melanin-concentrating hormone receptor 1 (Homo sapiens, UniProt Q99705); assay: Late-stage fluorescence-based counterscreen for antagonists of the G-protein coupled receptor 7 (GPR7): cell-based dose response assay to identify antagonists of the melanin-concentrating hormone receptor 1 (MCHR1) Set 5.

O=C(Nc1cnccn1)Nc1cccc2c(O)cccc12
Ki [1]: > 3980 nM (inactive) | Ki [2]: 126 nM (active) | Ki [3]: 2000 nM (active) | Ki [4]: 1580 nM (active) | Ki [5]: > 3980 nM (inactive) | Ki [6]: > 3980 nM (inactive) | Ki [7]: 1000 nM (active) | Ki [8]: > 6310 nM (inactive) | Ki [9]: > 3160 nM (inactive) | Ki [10]: 1580 nM (active) | Ki [11]: 200 nM (active) | Ki [12]: > 6310 nM (inactive) | Ki [13]: 316 nM (active) | Ki [14]: > 2000 nM (inactive) | Ki [15]: > 3160 nM (inactive) | Ki [16]: > 3160 nM (inactive) | Ki [17]: > 5010 nM (inactive) | Ki [18]: 3980 nM (active) | Ki [19]: 316 nM (active) | Ki [20]: 2000 nM (active) | Ki [21]: > 3160 nM (inactive) | Ki [22]: 3980 nM (active) | Ki [23]: 794 nM (active) | Ki [24]: 1580 nM (active) | Ki [25]: > 3980 nM (inactive) | Ki [26]: > 6310 nM (inactive) | Ki [27]: > 3980 nM (inactive) | Ki [28]: > 3160 nM (inactive) | Ki [29]: 126 nM (active) | Ki [30]: 2000 nM (active) | Ki [31]: > 3980 nM (inactive) | Ki [32]: 1580 nM (active) | Ki [33]: 2000 nM (active) | Ki [34]: 1000 nM (active) | Ki [35]: > 6310 nM (inactive) | Ki [36]: > 1260 nM (inactive) | Ki [37]: > 6310 nM (inactive) | Ki [38]: 1580 nM (active) | Ki [39]: 631 nM (active) | Ki [40]: 1260 nM (active) | Ki [41]: 2000 nM (active) | Ki [42]: > 3980 nM (inactive) | Ki [43]: > 5010 nM (inactive) | Ki [44]: > 3160 nM (inactive) | Ki [45]: > 3980 nM (inactive) | Ki [46]: 1000 nM (active) | Ki [47]: 5010 nM (active) | Ki [48]: > 3980 nM (inactive) | Ki [49]: > 3980 nM (inactive) | Ki [50]: 6.31 nM (active) | Ki [51]: > 1580 nM (inactive)

COc1ccc(C(C#N)c2c(Cl)cnn(Cc3cccc4ccccc34)c2=O)cc1 (stereo not drawn)
IC50 [52]: 360 nM (active) | IC50 [53]: 1130 nM (active)
